Converted amounts (≈) assume the structure as drawn. Like-named read-outs stand apart in the source and are kept apart here.
Tests used:
S. aureus biofilm [1] = assay: Biofilm determination by crystal violet staining; type: cell-based
Method: Biofilm determination by crystal violet staining. The biofilm was formed as described above. The planktonic (non-adherent) bacteria were removed by washing the wells with PBS. Added a solution of 0.15% (wt/vol) crystal violet to each well and incubated for 15 min at room temperature. Then, the plates were gently wash with PBS to remove excess crystal violet. One hundred microliters of ethanol were added to each well to solubilize the crystal violet that has bound to the biofilm. The absorbance at 570nm (A570nm) of the solubilized crystal violet was measured with a microplate reader^6.
Biofilm determination by XTT assay. To determine the biofilm inhibition, overnight cultures of S. aureus were diluted with TSB containing 2-fold diluted antimicrobials at the ratio of 1: 100 and added to a 96-well plate. After incubation statically at 37 ℃ for 24h, the supernatant was carefully removed and washed with PBS. (2,3-Bis-(2-methoxy-4-nitro-5-sulfophenyl)-2H-tetrazolium-5-carboxanilide) (XTT, 0.2 mg/ml) and Phenazin (methylsufate) (PMS, 0.02 mg/ml) were mixed with 1× PBS and added to each well of the 96-well plate (100 μL/well). The plate was then incubated for 3h in the dark, and the absorbance was measured at 490 nm (A490nm). For biofilm eradication, overnight cultures of S. aureus were diluted with fresh TSB at 1:100 and incubated for 24h to pre-form biofilms. […]

S. aureus [2] = assay: Drug combination by checkerboard dilution assay; type: cell-based; details: STK848198 with SM, TOB, AMP, fosfomycin, SIS, gentamycin
Method: Drug combination assay. The potential combinational antimicrobial effects between individual drugs were determined by checkerboard dilution assay. Briefly, overnight cultured S. aureus was diluted in MH broth to ~1× 10^6 CFU/mL. Compounds were two-fold diluted by MH broth, then 50 μL of each compound were added to each well vertically and horizontally, respectively, in a 96-well cell culture plate. […] The fractional inhibitory concentration index (FICI) was calculated as (MICA in combination/MICA alone) + (MICB in combination/MICB alone)^20.

S. aureus [3] = assay: MIC determination by microbroth dilution; type: cell-based, Staphylococcus aureus; details: Staphylococcus aureus; structure-activity relationship of C218-0546 analogs (Figure S1); read-out: MIC
Method: Minimal inhibitory concentration (MIC) determination. The detection of MIC was performed by the microbroth dilution method with reference to the previously report by Wang et al^2. Briefly, the fresh bacterial suspension was adjusted to a McF standard equivalent of 0.5 (~1.5 × 10^8 CFU/mL) and then 100-fold diluted with MH broth. Fifty microliters of bacterial suspension with equal volume of serially diluted compounds (1-128 µg/mL) were added into a 96-well cell plate (Corning Costar, the United States) and incubated at 37°C for 16-18 h. The bacterial suspension without compounds was used as a negative control. The lowest concentration that inhibited visible bacterial growth was considered as the value of MIC.

S. aureus [4] = assay: Peritonitis-sepsis model; type: in vivo, ICR mice; details: i.p., 24 h postinfection
Method: Peritonitis-sepsis model. Six to seven-week-old female ICR mice were included. […] Mice were injected with 500 μL of the suspension in the presence of 5% mucin by i.p.. An hour post-infection, the mice were administered with: 1) EL+ethanol, 2) […]-0546 (30 mg/kg), and 3) STK848198 (30 mg/kg) alone or in combination with ampicillin (AMP, 25 mg/kg)^38 or amikacin (AMK, 25 mg/kg).

S. aureus biofilm [5] = assay: Biofilm determination by XTT assay; type: cell-based
Method: Biofilm determination by XTT assay. To determine the biofilm inhibition, overnight cultures of S. aureus were diluted with TSB containing 2-fold diluted antimicrobials at the ratio of 1: 100 and added to a 96-well plate. After incubation statically at 37 ℃ for 24h, the supernatant was carefully removed and washed with PBS. (2,3-Bis-(2-methoxy-4-nitro-5-sulfophenyl)-2H-tetrazolium-5-carboxanilide) (XTT, 0.2 mg/ml) and Phenazin (methylsufate) (PMS, 0.02 mg/ml) were mixed with 1× PBS and added to each well of the 96-well plate (100 μL/well). The plate was then incubated for 3h in the dark, and the absorbance was measured at 490 nm (A490nm). For biofilm eradication, overnight cultures of S. aureus were diluted with fresh TSB at 1:100 and incubated for 24h to pre-form biofilms. Subsequently, the supernatant was removed and washed with PBS, and 200 μL of TSB in the presence of 2-fold diluted antimicrobials was added to each well. After incubation at 37 ℃ for 24h, the supernatant was removed and stained with XTT as described above^7.

hERG = target: T1, hERG (Homo sapiens, UniProt Q12809); assay: hERG patch clamp; type: cell-based; details: HEK293 cells expressing hERG channels, pH 7.4, hERG potassium channels
T1 construct: expressed in transfected cells; host or cells: HEK293
Method: hERG. hERG channels expressed HEK293 cell line was cultured in DMEM at 37℃ with 10% FBS to ~70% of log phase. Then, the cells were washed with PBS and digested with trypsin. After incubation at 37 ℃ for 2-3 min, the cells were washed again and adjusted to ~ 2×10^3/mL. The patch clamp detection experiment was performed after the cells attached to the cell wall. The extracellular fluid was prepared as 137 mM NaCl,1 mM MgCl2‧6H2O, 4 mM KCl,1.8 mM CaCl2‧2H2O, 10 mM D-Glucose, 10 mM HEPES, pH=7.4. And the intracellular fluid was prepared as 140 mM KCl,10 mM EGTA, 5 mM MgCl2‧6H2O, 10 mM HEPES, 5 mM Mg-ATP, pH=7.2. The current data was collected by using Pathmaster software. And the peak current inhibition rate was calculated as: (1−Peak tail current compoundPeak tail current veℎicle). The concentration-effects were fitted by the Hill equation: I=Imax∙(1/［1+（C1/2/［C］）^h), where [C], C1/2, and h represented the drug concentration, half inhibitory concentration (IC50), Hill coefficient, respectively^19.

[6] = Pharmacokinetics determination; type: in vivo; set-up: bioavailability / Vd / clearance / AUC(0-t) / AUC(0-inf) / MRT last / MRT inf: dose or concentration left out as unconfirmed; details: female, ICR, mouse, plasma, mice; for MRT last: read-out: MRT(0-t); for MRT inf: read-out: MRT(0-∞)
Method: Pharmacokinetics determination. […] Blood samples were extracted from the jugular vein at intervals of 0.083, 0.25, 0.5, 1, 2, 4, 8, and 24h post-treatment, respectively. The plasma was separated following centrifugation at 6800 × g for 6 min. Concentrations of these compounds in the plasma were quantified by using the LC-MS/MS-04 instrument (TQ4000, JEOL, Japan), and pharmacokinetic parameters were calculated by using Phoenix WinNonlin 7.0 software (Certara, Princeton, NJ, USA)^37.

T1 sequence (Q12809 whole entry): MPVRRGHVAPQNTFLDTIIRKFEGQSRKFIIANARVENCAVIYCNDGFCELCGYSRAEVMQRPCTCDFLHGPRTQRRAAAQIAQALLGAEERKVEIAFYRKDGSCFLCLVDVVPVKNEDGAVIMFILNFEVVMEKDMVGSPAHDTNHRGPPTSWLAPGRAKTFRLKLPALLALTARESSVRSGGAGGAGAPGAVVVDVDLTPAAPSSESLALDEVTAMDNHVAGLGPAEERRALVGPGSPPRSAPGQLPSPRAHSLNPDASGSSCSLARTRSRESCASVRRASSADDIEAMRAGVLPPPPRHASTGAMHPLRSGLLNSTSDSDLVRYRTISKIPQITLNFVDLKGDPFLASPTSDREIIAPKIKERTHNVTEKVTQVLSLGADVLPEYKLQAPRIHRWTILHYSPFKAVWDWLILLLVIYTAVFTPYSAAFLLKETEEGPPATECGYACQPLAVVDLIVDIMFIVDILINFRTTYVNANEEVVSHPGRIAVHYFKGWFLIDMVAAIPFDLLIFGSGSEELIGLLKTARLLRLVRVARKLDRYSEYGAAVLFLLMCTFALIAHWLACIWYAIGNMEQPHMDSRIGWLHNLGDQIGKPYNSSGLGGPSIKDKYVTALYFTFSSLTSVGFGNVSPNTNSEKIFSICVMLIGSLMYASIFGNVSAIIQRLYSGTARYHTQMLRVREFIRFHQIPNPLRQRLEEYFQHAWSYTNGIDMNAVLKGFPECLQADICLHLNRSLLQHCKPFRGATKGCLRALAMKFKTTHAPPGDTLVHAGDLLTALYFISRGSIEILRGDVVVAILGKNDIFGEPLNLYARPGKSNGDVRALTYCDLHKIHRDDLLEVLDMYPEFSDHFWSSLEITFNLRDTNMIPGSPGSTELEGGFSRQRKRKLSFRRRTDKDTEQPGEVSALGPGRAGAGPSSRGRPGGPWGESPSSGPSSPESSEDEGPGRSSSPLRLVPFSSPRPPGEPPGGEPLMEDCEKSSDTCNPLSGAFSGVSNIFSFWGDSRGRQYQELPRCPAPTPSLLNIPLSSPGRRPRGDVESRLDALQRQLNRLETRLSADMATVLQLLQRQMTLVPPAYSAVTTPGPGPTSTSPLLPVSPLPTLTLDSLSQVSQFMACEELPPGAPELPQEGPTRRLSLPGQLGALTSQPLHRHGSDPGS

Cc1nc2c(-c3ccc(Cl)cc3)cnn2c(O)c1Cc1ccccc1 [STK848198]
concentration inhibiting biofilm biomass formation (S. aureus biofilm [1]; biofilm inhibition): 0.25 µg/mL
concentration eradicating preformed biofilm biomass (S. aureus biofilm [1]; preformed biofilm): 2 µg/mL
FICI (S. aureus [2]): ≤ 0.5
MIC (S. aureus [3]): 2 µg/mL (≈ 5.72 µM)
bacterial loads in liver, spleen, lung, and kidney (S. aureus [4]; STK848198 30 mg/kg combined with AMP 25 mg/kg): significantly reduced the bacterial loads
bacterial loads in organs (S. aureus [4]; single use, vs vehicle): no statistical difference
concentration inhibiting biofilm viability (S. aureus biofilm [5]; biofilm inhibition): 0.125 µg/mL
concentration reducing preformed biofilm viability (S. aureus biofilm [5]; preformed biofilm): 0.5 µg/mL
IC50 (hERG): > 30 µM
AUC(0-inf) ([6]; ip): 38300 ± 7020 ng·h/mL
AUC(0-t) ([6]; ip): 38300 ± 7020 ng·h/mL
Cmax ([6]; ip): 39000 ± 5470 ng/mL
bioavailability ([6]; ip): 87%
MRT last ([6]; ip, i.p.): 1.02 ± 0.16 h
MRT inf ([6]; ip, i.p.): 1.17 ± 0.21 h
half-life ([6]; ip, i.p., read-out: T1/2 (converted)): 3.15 ± 2.38 h
Tmax ([6]; ip, i.p., read-out: Tmax): 0.33 ± 0.14 h
AUC(0-inf) ([6]; iv): 22400 ± 1990 ng·h/mL
AUC(0-t) ([6]; iv): 22000 ± 1960 ng·h/mL
C0 ([6]; iv): 51900 ± 1010 ng/mL
Cmax ([6]; iv): 40100 ± 2180 ng/mL
clearance ([6]; iv): 7.48 ± 0.69 mL/min/kg
MRT last ([6]; iv, i.v.): 0.67 ± 0.1 h
MRT inf ([6]; iv, i.v.): 0.86 ± 0.05 h
half-life ([6]; iv, i.v., read-out: T1/2 (converted)): 2.54 ± 0.7 h
Tmax ([6]; iv, i.v., read-out: Tmax): 0.08 h
Vd ([6]; iv, i.v., read-out: Vss): 0.38 ± 0.02 L/kg
Vd ([6]; iv, i.v., read-out: Vz): 1.66 ± 0.57 L/kg
Tmax ([6]; other: range over s.c., i.v., i.p. and p.o., 30 mg/kg, all the administration routes, read-out: T max (range)): 0.08 to 0.33 h
half-life ([6]; other: range over s.c., i.v., i.p. and p.o., 30 mg/kg, all the administration routes, read-out: half-life (range)): 2.54 to 7.65 h
AUC(0-inf) ([6]; po): 17800 ± 10500 ng·h/mL
AUC(0-t) ([6]; po): 17800 ± 10500 ng·h/mL
Cmax ([6]; po): 18700 ± 3430 ng/mL
bioavailability ([6]; po): 40.4%
MRT last ([6]; po, p.o.): 1.62 ± 0.75 h
MRT inf ([6]; po, p.o.): 2.21 ± 0.79 h
half-life ([6]; po, p.o., read-out: T1/2 (converted)): 3.43 ± 1.53 h
Tmax ([6]; po, p.o., read-out: Tmax): 0.25 h
AUC(0-inf) ([6]; sc): 18000 ± 3640 ng·h/mL
AUC(0-t) ([6]; sc): 18000 ± 3640 ng·h/mL
Cmax ([6]; sc): 11600 ± 6890 ng/mL
bioavailability ([6]; sc): 40.9%
MRT last ([6]; sc, s.c.): 3.5 ± 1.22 h
MRT inf ([6]; sc, s.c.): 5.19 ± 2.09 h
half-life ([6]; sc, s.c., read-out: T1/2 (converted)): 7.65 ± 1.16 h
Tmax ([6]; sc, s.c., read-out: Tmax): 0.33 ± 0.14 h

Source: paper PMC11707430, “Novel antibiotics against Staphylococcus aureus without detectable resistance by targeting proton motive force and FtsH” (MedComm, 2025)
